Holding throughout (assay type): cell-based, human
The subject of one assay is OPM-2 cells. The assay can be described thus: Proliferation/viability assay (CellTiter-Glo), OPM-2. The settings on record: OPM-2, 48 h treatment. Here is the method: (§1) Human MM cell lines used were as follows: NCI-H929, OPM-2, LP-1, RPMI-8226, U266 (DSMZ, Braunschweig, Germany). Cell lines were cultured in RPMI 1640 medium (Biochrom, Berlin, Germany) supplemented with 10% heat-inactivated fetal calf serum (FCS, Gibco, Karlsruhe, Germany), 1 mM sodium pyruvate and 100 units/ml penicillin and 100 μg/ml streptomycin (Gibco). Human osteoclasts were obtained as described in the reference of Zavrski I, Krebbel H, Wildemann B, et al. Proteasome inhibitors abrogate osteoclast differentiation and osteoclast function. Biochem Biophys Res Commun. 2005; 333:200-205. Briefly, peripheral blood mononuclear cells (PBMC) were isolated from whole blood of healthy volunteers, using a Ficoll-Hypaque density gradient. The adherent fraction of the isolated mononuclear cells was cultured for 21 days in MEM medium (Sigma-Aldrich Chemie, Taufkirchen, Germany) supplemented with 10% FCS, 100 U/ml penicillin, 100 μg/ml streptomycin, 50 ng/ml M-CSF, and 25 ng/ml RANKL (osteoclastogenic medium), before coculture experiments and treatment with the inventive compounds started. […]
For assaying proliferation/viability of cells CellTiter-Glo Luminescent Cell Viability Assay (Promega, Mannheim, Germany) was used. In this assay the number of viable cells at a given time point is determined by quantification of ATP present, which serves as a measure of metabolically active cells. […]
For orientation: Cellular ATP, detected with luciferase, serves as a proxy for viable cell number.

Assay [1] relates to Hes-1. The experiment in a line: Quantitative RT-PCR of Notch1 target gene Hes-1 in OPM-2 cells. The settings on record: OPM-2 cells treated with GSI15. Here is the method: Quantitative real-time reverse transcription-PCR (RT-PCR) analysis was performed using the following primer/probe sets: human Hes-1 (forward—[…], reverse—[…], probe—FAM-[…]-TAMRA) human TRAP5 (forward—[…], reverse—[…], probe FAM-[…]-TAMRA), human beta2-microglobulin (forward—ccc cca ctg aaa aag atg ag, reverse—atc caa tcc aaa tgc ggc, probe—FAM-CCTGCCGTGTGAACCATGTGACTTT-TAMRA) served as normalizer. Total RNA was extracted from MM cells, human osteoclasts or human osteoblasts using RNeasy Mini Kit (Qiagen, Hilden, Germany) following the manufacturer's instructions. For the RT-PCR reaction SuperScript™ III Platinum® One-Step Quantitative RT-PCR System (Invitrogen, Karlsruhe, Germany) was used. 50 ng total RNA were used per reaction, each RNA sample was analyzed in three replicates. PCR conditions (40 cycles) were the following: reverse transcription at 50° C. for 30 minutes, initial denaturation at 95° C. for 10 minutes, followed by 40 cycles of 45 seconds denaturation at 95° C. and 60 seconds annealing/extension at 62° C. Amplification of the house-keeping gene beta2-microglobulin was used to normalize the expression data. Normalized mRNA expression data were then calculated as values relative to the respective untreated sample.

In the next assay the test system is OCL. The assay can be described thus: PARP cleavage in osteoclasts (OCL), mono- and coculture. How it is done: as §1
Whole cell extracts were prepared and quantified as described in Jundt F, Anagnostopoulos I, Forster R, Mathas S, Stein H, Dorken B. Activated Notch1 signaling promotes tumor cell proliferation and survival in Hodgkin and anaplastic large cell lymphoma. […]

Assay [2] deals with Hes-1. The experiment in a line: Hes-1 mRNA expression in OCL (quantitative RT-PCR). Conditions: mono- and coculture with OPM-2. How it is done:
In osteoclast coculture experiments, OPM-2 cells (1×10^6 cells) were added to osteoclasts in 60 mm dishes (4×10^6 cells per dish) in 3 ml MEM medium supplemented with 10% FCS, 100 U/ml penicillin, 100 μg/ml streptomycin. GSI15 (30 μM, 60 μM) or DMSO (equivalent to 60 μM) as solvent control were added to each well (daily treatment). After 48 h, 0.5 ml OPM-2 cell suspension were harvested per well and subjected to AnnexinV-FITC/PI staining. Remaining OPM-2 cells were harvested and lysed for either RNA or protein preparation. The monolayer of osteoclasts was washed twice with ice-cold PBS and then lysed for either RNA or protein preparation directly on the plate.
Quantitative real-time reverse transcription-PCR (RT-PCR) analysis was performed using the following primer/probe sets: human Hes-1 (forward—[…], reverse—[…], probe—FAM-[…]-TAMRA) human TRAP5 (forward—[…], reverse—[…], probe FAM-[…]-TAMRA), human beta2-microglobulin (forward—ccc cca ctg aaa aag atg ag, reverse—atc caa tcc aaa tgc ggc, probe—FAM-CCTGCCGTGTGAACCATGTGACTTT-TAMRA) served as normalizer. […] For the RT-PCR reaction SuperScript™ III Platinum® One-Step Quantitative RT-PCR System (Invitrogen, Karlsruhe, Germany) was used. 50 ng total RNA were used per reaction, each RNA sample was analyzed in three replicates. […] Normalized mRNA expression data were then calculated as values relative to the respective untreated sample.

Regarding `CC(C)c1ccc(S(=O)(=O)Nc2cccnc2Oc2ccc(Cl)cc2)cc1` [Example 1, N-(2-(4-chlorophenoxy)pyridin-3-yl)-4-isopropylbenzenesulfonamide], in the assay on OPM-2 cells, the “concentration of maximum effect on proliferation” value was 60 µM and the proliferation entry was “dose-dependent reduction of proliferation”. Besides, the “Hes-1 expression (Notch1 target gene)” value in the assay on Hes-1 [1] is listed as “dose-dependently downregulated”. Besides, in the assay with OCL (OCL alone), the PARP cleavage entry is listed as “did not induce PARP cleavage”. Further, in the assay on OCL (OCL cocultured with OPM-2 cells, high doses of GSI15), the PARP cleavage entry was “it was induced”. Moreover, the “Hes-1 mRNA expression” value with Hes-1 [2] is “diminished Hes-1 mRNA expression”.
